Some test systems named below: Escherichia coli UB1005; Escherichia coli K99; Escherichia coli K88; Staphylococcus aureus; Streptococcus agalactiae; Escherichia coli 780; Staphylococcus aureus 75.
Holding throughout (assay): ≥ marks a high value that may be exact or a test limit, other limits are often not marked, values filed in µg/mL are converted to µM
In assay [1] the test system is Escherichia coli ATCC 25922.
The test system of assay [2] is Staphylococcus aureus ATCC 43300.
For assay [3], the system named is Staphylococcus aureus ATCC 25923.
Assay [4] relates to Lacticaseibacillus rhamnosus 1.0936.
The test system of assay [5] is Lactiplantibacillus plantarum 8014.
Assay [6] relates to Lacticaseibacillus rhamnosus 1.0385.
Assay [7] concerns Pseudomonas aeruginosa ATCC 27853.
In assay [8] the test system is Salmonella enterica subsp. enterica serovar Pullorum C79-13.
Assay [9] deals with Salmonella enterica subsp. enterica serovar Typhimurium C77-31.
In assay [10] the test system is Lacticaseibacillus rhamnosus 1.0911.
For assay [11], the system named is Salmonella enterica subsp. enterica serovar Typhimurium ATCC 14028.
In assay [12] the test system is Lacticaseibacillus rhamnosus 7469.
Assay [13] relates to Salmonella enterica subsp. enterica serovar Choleraesuis CVCC 503.
Assay [14] relates to Enterococcus faecalis ATCC 29212.
The subject of assay [15] is Staphylococcus epidermidis ATCC 12228.
The test system of assay [16] is Staphylococcus aureus ATCC 29213.
Assay [17] relates to Staphylococcus aureus ATCC 6538.
Assay [18] relates to Micrococcus luteus ATCC 9341.
Assay [19] concerns Candida albicans ATCC 36232.
Assay [20] relates to Klebsiella pneumoniae ATCC 700603.
Assay [21] relates to Staphylococcus aureus 113.
Assay [22] has as its system Pseudomonas aeruginosa 50.
For assay [23], the system named is Pseudomonas aeruginosa ATCC 9027.
The subject of assay [24] is Acinetobacter baumannii 9931.
Assay [25] deals with Bacillus subtilis ATCC 23857.
For assay [26], the system named is Acinetobacter baumannii ATCC 19606.

In DBAASP one finds MIC data, which are given here for 6 compounds.

The structures appear in SMILES notation. In brackets after ≈: the same amount, converted by molar mass. Several values for one entry are separate records, joined by “and”; a condition that tells them apart may be missing. Equal values may be shown once.

Consider `C[C@@H]1NC(=O)[C@@H](N)CSSC[C@@H](C(=O)N[C@@H](CCCN=C(N)N)C(=O)N[C@@H](Cc2c[nH]c3ccccc23)C(=O)N[C@@H](Cc2c[nH]c3ccccc23)C(=O)N[C@@H](Cc2c[nH]c3ccccc23)C(=O)N[C@@H](CCCN=C(N)N)C(=O)N[C@@H](CCCN=C(N)N)C(N)=O)NC(=O)[C@H](Cc2ccccc2)NC(=O)[C@H](Cc2ccc(O)cc2)NC(=O)[C@H](CO)NC1=O` [CASYFCRWWWRR], for which the minimal inhibitory concentration (MIC) (usually the lowest concentration found to suppress growth) in assay [1] was 8 µM (≈ 13.7 µg/mL); in [2], 4 µM (≈ 6.87 µg/mL); in assay [3] it was 4 µM (≈ 6.87 µg/mL); in [4], ≥ 64 µM; in assay [5], ≥ 64 µM; against Escherichia coli UB1005, 8 µM (≈ 13.7 µg/mL). For the same compound, the MIC in assay [6] was ≥ 64 µM; in assay [7], > 64 µM; in [8], 8 µM (≈ 13.7 µg/mL); in assay [9], ≥ 32 µM; in assay [10], ≥ 64 µM; in [11] it was 64 µM (≈ 110 µg/mL). Also, the MIC in assay [12] is ≥ 64 µM; against Escherichia coli K99, 4 µM (≈ 6.87 µg/mL); in the assay with Escherichia coli K88, ≥ 32 µM.

`CC[C@H](C)[C@H](N)C(=O)N[C@H](C(=O)N[C@@H](CS)C(=O)N[C@@H](CCCN=C(N)N)C(=O)N[C@@H](CCCCN)C(=O)N1CCC[C@H]1C(=O)N[C@H](C(=O)N[C@H](C(=O)N[C@@H](CS)C(=O)N[C@@H](CCCN=C(N)N)C(=O)N[C@@H](CCCCN)C(=O)N1CCC[C@H]1C(=O)N[C@H](C(=O)N[C@H](C(=O)N[C@@H](CS)C(=O)N[C@@H](CCCN=C(N)N)C(=O)N[C@@H](CCCCN)C(=O)N1CCC[C@H]1C(=O)N[C@H](C(=O)N[C@H](C(=O)N[C@@H](CS)C(=O)N[C@@H](CCCN=C(N)N)C(=O)N[C@@H](CCCCN)C(=O)N1CCC[C@H]1C(=O)N[C@H](C(=O)N[C@H](C(N)=O)[C@@H](C)CC)[C@@H](C)CC)[C@@H](C)CC)[C@@H](C)CC)[C@@H](C)CC)[C@@H](C)CC)[C@@H](C)CC)[C@@H](C)CC)[C@@H](C)CC` [IICRKPIICRKPIICRKPIICRKPII]: the minimum inhibitory concentration (MIC) amounted to 4 µM (≈ 12.3 µg/mL) in assay [13]; 16 µM (≈ 49.4 µg/mL) in assay [2]; 32 µM (≈ 98.8 µg/mL) in assay [14]; 16 µM (≈ 49.4 µg/mL) in assay [15]; 1 µM (≈ 3.09 µg/mL) with Escherichia coli UB1005; 16 µM (≈ 49.4 µg/mL) in the assay with Staphylococcus aureus. In addition, the minimum inhibitory concentration (MIC) against Streptococcus agalactiae is 16 µM (≈ 49.4 µg/mL); in assay [16], 32 µM and 64 µM; in assay [8], 8 µM (≈ 24.7 µg/mL); in [9], 2 µM (≈ 6.17 µg/mL); in assay [11], 2 µM (≈ 6.17 µg/mL).

With `CC(C)[C@H](NC(=O)[C@H](CCCCN)NC(=O)[C@H](Cc1ccccc1)NC(=O)[C@@H](NC(=O)[C@@H](NC(=O)[C@@H](N)CCCCN)C(C)C)C(C)C)C(=O)N[C@@H](CCCCN)C(=O)N[C@@H](Cc1ccccc1)C(=O)N[C@@H](CCCCN)C(=O)N[C@@H](CCCCN)C(=O)N[C@@H](CCCCN)C(N)=O` [KVVFKVKFKKK], the MIC is 2.27 µM (≈ 3.13 µg/mL) in assay [17]; 2.27 µM (≈ 3.13 µg/mL) in [18]; 4.53 µM and 2.27 µM and 3.21 µM in assay [19].

Regarding `C[C@H](NC(=O)[C@H](C)NC(=O)[C@H](Cc1c[nH]c2ccccc12)NC(=O)[C@H](Cc1c[nH]c2ccccc12)NC(=O)[C@H](Cc1c[nH]c2ccccc12)NC(=O)[C@@H](N)CCCN=C(N)N)C(N)=O` [RWWWAA], the MIC in [1] was > 64 µM; in assay [2], > 64 µM; in [3] it was > 64 µM; in assay [4], ≥ 64 µM; in assay [5], ≥ 64 µM; in the assay on Escherichia coli UB1005 it was ≥ 64 µM. Also, the MIC in assay [6] is ≥ 64 µM; in [7], > 64 µM; in [16] it was > 64 µM; in [8], ≥ 64 µM; in assay [9], ≥ 64 µM; in assay [10], ≥ 64 µM. Moreover, the minimal inhibitory concentration (MIC) in [11] is > 64 µM; in assay [12] it was ≥ 64 µM; in the assay on Escherichia coli K99, ≥ 64 µM; against Escherichia coli K88, ≥ 64 µM.

Turning to `CC(C)[C@H](N)C(=O)N[C@@H](CS)C(=O)N[C@@H](CCCN=C(N)N)C(=O)N[C@@H](CCCCN)C(=O)N1CCC[C@H]1C(=O)N[C@H](C(=O)N[C@H](C(=O)N[C@@H](CS)C(=O)N[C@@H](CCCN=C(N)N)C(=O)N[C@@H](CCCCN)C(=O)N1CCC[C@H]1C(=O)N[C@H](C(=O)N[C@H](C(=O)N[C@@H](CS)C(=O)N[C@@H](CCCN=C(N)N)C(=O)N[C@@H](CCCCN)C(=O)N1CCC[C@H]1C(=O)N[C@H](C(N)=O)C(C)C)C(C)C)C(C)C)C(C)C)C(C)C` [VCRKPVVCRKPVVCRKPV], the MIC in [1] is 8 µM (≈ 16.5 µg/mL); in [13], ≥ 64 µM; in assay [2], > 64 µM; in assay [14] it was > 64 µM; in assay [15] it was > 64 µM; with Escherichia coli UB1005, 16 µM (≈ 33.1 µg/mL). Also, the minimal inhibitory concentration (MIC) in the assay on Staphylococcus aureus is > 64 µM; against Streptococcus agalactiae it was ≥ 64 µM; in [16] it was > 64 µM; in assay [8], ≥ 64 µM; in [9], 16 µM (≈ 33.1 µg/mL); in [11], 8 µM (≈ 16.5 µg/mL).

As for `NC(=O)[C@H](Cc1c[nH]c2ccccc12)NC(=O)[C@H](CCCN=C(N)N)NC(=O)[C@H](Cc1c[nH]c2ccccc12)NC(=O)[C@H](Cc1c[nH]c2ccccc12)NC(=O)[C@H](CCCN=C(N)N)NC(=O)[C@H](Cc1c[nH]c2ccccc12)NC(=O)[C@H](Cc1c[nH]c2ccccc12)NC(=O)[C@H](CCCN=C(N)N)NC(=O)[C@H](Cc1c[nH]c2ccccc12)NC(=O)[C@H](Cc1c[nH]c2ccccc12)NC(=O)[C@H](CCCN=C(N)N)NC(=O)[C@H](Cc1c[nH]c2ccccc12)NC(=O)[C@H](Cc1c[nH]c2ccccc12)NC(=O)[C@H](CCCN=C(N)N)NC(=O)[C@@H](N)Cc1c[nH]c2ccccc12` [WRWWRWWRWWRWWRW], the MIC in assay [20] is 16 µM (≈ 42.6 µg/mL); in [21], 4 µM (≈ 10.6 µg/mL); in [22] it was ≥ 32 µM; in assay [3], 8 µM and 16 µM; in assay [15] it was 4 µM (≈ 10.6 µg/mL); in the assay on Escherichia coli 780, 16 µM (≈ 42.6 µg/mL). For the same compound, the MIC in [23] came out at 16 µM (≈ 42.6 µg/mL); with Staphylococcus aureus 75, 8 µM (≈ 21.3 µg/mL); in [7], 16 µM (≈ 42.6 µg/mL); in assay [24] it was 16 µM (≈ 42.6 µg/mL); in [25], 4 µM (≈ 10.6 µg/mL); in assay [16] it was 8 µM (≈ 21.3 µg/mL). In [26], the minimal inhibitory concentration (MIC) is 16 µM (≈ 42.6 µg/mL).
